This note sets out measurements from patent US11191746B2, “Composition for inhibiting a growth of cancer stem cells comprising ciclesonide” (JEJU NATIONAL UNIVERSITY INDUSTRY-ACADEMIC COOPERATION …, priority 2016, dated 2021).

Type in all cases: cell-based, human
Test [1] relates to STAT3. As to the kind of experiment: Electrophoretic mobility shift assay (EMSA) of mammosphere nuclear extract. The following applies: ciclesonide-treated mammosphere nuclear extract. Background: Mobility shift assays separate free from complexed probe on a gel.
The subject of a further test is tumorspheres. As to the kind of experiment: Tumorsphere proliferation (cell counting). The following applies: tumorspheres treated 2 days, single cells replated and counted on days 1 to 3. How it is done:
FIG. 11B illustrates the effect of ciclesonide on tumorsphere formation wherein ciclesonide inhibits the growth of tumorspheres, tumorspheres having been treated with ciclesonide or DMSO for 2 days were separated into single cells and plated in 6 cm dishes at the same density, 24 hours after plating, the cells were counted, on days 1, 2, and 3, the cells were counted three times, and plotted as mean values, and the data was expressed as the mean±SD for the three independent experimental results. *p<0.05 vs. DMSO-treated control; and […]

Test [2] concerns STAT3. As to the kind of experiment: Western blotting of mammosphere nuclear proteins. The following applies: MCF-7 cells-derived mammospheres. How it is done: Proteins isolated from ciclesonide-treated MCF-7 or MDA-MB-231 mammospheres were separated on 10% SDS-PAGE and transferred to a polyvinylidene difluoride membrane (Millipore, Bedford, Mass., USA). The membrane was blocked in PBS-Tween 20 (0.1%, v/v) containing 5% skimmed milk at room temperature for 30 minutes. The blot was incubated at 4° C. overnight with a blocking solution containing primary antibodies. The primary antibodies used were as follows: Stat3, p65, Lamin B, and phospho-Stat3 (Cell Signaling, Beverly, Mass., USA). β-actin (Santa Cruz Biotechnology) was used as a loading control. After washing with PBS-Tween 20 (0.1%, v/v), the blot was incubated with horseradish peroxidase-conjugated secondary antibodies, and photosensitized with a chemiluminescence detection kit (Santa Cruz Biotechnology).
A general note: Immunoblotting shows a protein as a band on a membrane.

In the next test the test system is C-myc. The experiment in a line: Real-time PCR of self-renewing genes in mammospheres. As to conditions: RT-PCR, β-actin internal control. How it is done:
(§1) The levels of transcripts were measured with a One Step SYBR PrimeScript RT-PCR kit (Takara, Tokyo, Japan) using SYBR green as a double-stranded DNA-specific dye in accordance with the manufacturer's protocol. One-step RT-PCR was performed on 1 μg of total RNA, 10 μl of 2× One Step SYBR RT-PCR Buffer IV, and 1 μl of PrimeScript 1 step Enzyme Mix II using PCR forward and reverse primers of each of CD44, NANOG, OCT4, C-myc, Sox2, Snail, and β-actin at a final volume of 20 μl per reaction.
(§2) The relative expression level of mRNA of the target gene was calculated using a comparative CT method. At least three independent PCR procedures were performed in accordance with statistical analysis. PCR products were normalized with the […] gene as an internal control.
For orientation: Quantitative PCR measures a nucleic acid by following its amplification.

Another test has as its system Sox2. Described as above. The following applies: RT-PCR, β-actin internal control. On the procedure:
as §1, §2

The next test concerns CD44. The test is described as above. As to conditions: RT-PCR, β-actin internal control. How it is done: as §1, §2
The next test relates to Nanog. Described as above. The following applies: RT-PCR, β-actin internal control. On the procedure: as §1, §2
The next test has as its system Oct4. Described as above. As to conditions: RT-PCR, β-actin internal control. On the procedure:
as §1, §2

Test [3] concerns MCF-7 cell-derived mammospheres. As to the kind of experiment: Mammosphere formation. On the procedure:
(§3) Human breast cancer cells, MCF-7, were obtained from American Type Culture Collection (ATCC; Manassas, Va., USA). MCF-7 cells and MDA-MB-231 cells were cultured in Dulbecco's Modified Essential Medium (DMEM; Hyclone, Logan, Utah, USA) containing 10% fetal bovine serum (FBS; Hyclone), 100 U/ml of penicillin, and 100 μg/ml of streptomycin (Hyclone). The MCF-7 cells were maintained in a humidified incubator containing 5% CO2 at 37° C. The cells were plated in 10 cm culture dishes at a density of 1×10^6 cells. To establish primary mammospheres, single cell-suspended MCF-7 cells were inoculated into ultra-low attachment 6-well plates containing 2 ml of complete MammoCult™ medium (StemCell Technologies, Vancouver, BC, Canada) at a density of 3.5 to 4×10^4 cells/well. The complete MammoCult™ medium was supplemented with 4 μg/ml of heparin, 0.48 μg/ml of hydrocortisone, 100 U/ml of penicillin, and 100 μg/ml of streptomycin. The cells were incubated in a 5% CO2 incubator at 37° C. for 7 days.
(§4) On day 10 of culture, cell culture plates were placed on a scanner (Epson Perfection V700 PHOTO, Epson Korea, Co, Seoul, Korea) to obtain 8-bit gray scale images of mammospheres. The images were acquired using a NICE software program downloaded from ftp://ftp.nist.gov/pub/physics/mlclarke/NICE at a low resolution of 300 dpi. For counting, a desired number of rows and columns (e.g., 2×3 for a 6-well plate) were selected to generate ROIs and after selecting the elliptical setting of the NICE program, the individual ROIs were defined by adjusting the movement and size of the provided ROI shapes. The background signals of the images were negated using a threshold algorithm, and the selected images were automatically counted. To analyze the formation of mammospheres, mammosphere formation efficiency (MFE, %) was determined by the following equation: MFE (%)=the number of mammospheres per well/a total number of plated cells per well×100.

Test [4] deals with MDA-MB-231 cell-derived mammospheres. The experiment in a line: Mammosphere formation. How it is done: as §3, §4

In the case of `CC(C)C(=O)OCC(=O)[C@@]12O[C@H](C3CCCCC3)O[C@@H]1C[C@H]1[C@@H]3CCC4=CC(=O)C=C[C@]4(C)[C@H]3[C@@H](O)C[C@@]12C` [ciclesonide], the “binding between the biotin-labeled SIE probe and Stat3” value in the test on STAT3 [1] is on record as “inhibited”. The “growth of tumorspheres (number of survived cancer cells)” value in the test with tumorspheres is recorded as “inhibited”. Further, the “phosphorylation of nuclear STAT3 protein compared to a control” value with STAT3 [2] is “reduced”. For the same compound, the “expression of C-myc” value in the test with C-myc was “reduced”. The “expression of Sox2” value with Sox2 is “reduced”. In the test with CD44, the “expression of CD44” value was “reduced”. For the same compound, the “expression of Nanog” value with Nanog is on record as “reduced”. Moreover, the “expression of Oct4” value in the test on Oct4 was “reduced”. The “growth of breast cancer stem cells” value was “significantly inhibited” in test [3] (MCF-7 mammospheres, 10 μM) and “significantly inhibited” in [4] (MDA-MB-231 mammospheres, 10 μM). The “size of the mammospheres” value in [3] (MCF-7 primary mammospheres) and in test [4] (MDA-MB-231 primary mammospheres) was “reduced” each time. Also, the “reduction of the number of mammospheres” value in test [3] (MCF-7 primary mammospheres, 5 μM or 10 μM, 7 days) is 90%; in [4] (MDA-MB-231 primary mammospheres, 10 μM, 7 days) it was 90%.
